Drawing on publication PMC2222991 (The Journal of General Physiology, 1999), this text covers EC50 for one molecule.

Assay [1] deals with T1, TAX-4 (C. elegans tax-4 CNG channel subunit) (Caenorhabditis elegans, UniProt Q03611).
T1 sequence (Q03611 1-733): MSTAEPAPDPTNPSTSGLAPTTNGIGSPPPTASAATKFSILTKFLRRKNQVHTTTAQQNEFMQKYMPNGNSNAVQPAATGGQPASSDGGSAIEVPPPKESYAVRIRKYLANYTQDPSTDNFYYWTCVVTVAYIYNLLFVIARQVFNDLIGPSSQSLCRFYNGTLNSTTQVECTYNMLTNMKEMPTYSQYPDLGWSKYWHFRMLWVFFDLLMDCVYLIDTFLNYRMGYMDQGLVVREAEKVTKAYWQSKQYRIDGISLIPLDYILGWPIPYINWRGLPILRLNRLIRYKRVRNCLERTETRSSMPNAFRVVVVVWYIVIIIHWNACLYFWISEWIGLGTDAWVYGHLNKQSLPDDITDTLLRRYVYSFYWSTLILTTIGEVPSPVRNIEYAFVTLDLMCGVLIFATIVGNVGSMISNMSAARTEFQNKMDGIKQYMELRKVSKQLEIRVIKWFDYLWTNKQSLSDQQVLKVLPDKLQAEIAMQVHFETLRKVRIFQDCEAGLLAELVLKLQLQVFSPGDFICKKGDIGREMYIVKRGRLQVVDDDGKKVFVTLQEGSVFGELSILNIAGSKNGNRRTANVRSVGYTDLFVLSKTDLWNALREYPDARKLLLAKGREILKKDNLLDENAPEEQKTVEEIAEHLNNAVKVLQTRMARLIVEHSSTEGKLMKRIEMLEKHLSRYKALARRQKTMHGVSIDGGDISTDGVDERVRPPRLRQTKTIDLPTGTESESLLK
Briefly: inside-out patch macroscopic current, Hill fit. It counts as cell-based.

For another assay, the system named is RTL2. Briefly: inside-out patch macroscopic current, Hill fit. It counts as cell-based, Bos taurus / Caenorhabditis elegans. As to conditions: read-out: K 1/2; agonist; divalent-free solution pH 7.2; -80 or -100 mV; n = 4.
Another assay relates to RTL. Briefly: inside-out patch macroscopic and single-channel currents, Hill fit. It counts as cell-based, Bos taurus / Caenorhabditis elegans. The note with it: read-out: K 1/2; agonist; divalent-free solution pH 7.2; -80 or -100 mV; n = 8.
In another assay the test system is RTB. Put plainly: inside-out patch macroscopic current, Hill fit. It counts as cell-based, Bos taurus / Caenorhabditis elegans. As to conditions: read-out: K 1/2; agonist; divalent-free solution pH 7.2; -80 or -100 mV; n = 5.
A further assay concerns TRC. Put plainly: inside-out patch macroscopic current, Hill fit. As to conditions: read-out: K 1/2; agonist; divalent-free solution pH 7.2; -80 or -100 mV; n = 4. Format: cell-based, Caenorhabditis elegans / Bos taurus.
A further assay deals with ROPTL2. Briefly: inside-out patch macroscopic current, Hill fit. As to conditions: read-out: K 1/2; agonist; divalent-free solution pH 7.2; -80 or -100 mV; n = 4. Format: cell-based, Bos taurus / Caenorhabditis elegans / Ictalurus punctatus.
Another assay relates to RTL1. Put plainly: inside-out patch macroscopic current, Hill fit. It counts as cell-based, Bos taurus / Caenorhabditis elegans. The note with it: read-out: K 1/2; agonist; divalent-free solution pH 7.2; -80 or -100 mV; n = 4.
A further assay concerns RTC. Briefly: inside-out patch macroscopic current, Hill fit. It counts as cell-based, Bos taurus / Caenorhabditis elegans. The note with it: read-out: K 1/2; agonist; divalent-free solution pH 7.2; -80 or -100 mV; n = 8.

In the case of `Nc1nc2c(ncn2[C@@H]2O[C@@H]3COP(=O)(O)O[C@H]3[C@H]2O)c(=O)[nH]1` [cGMP], the EC50 in assay [1] worked out at 0.4 µM; in the assay on RTL2, 4 µM; in the assay with RTL, 1 µM; in the assay with RTB, 63 µM; in the assay on TRC it was 4.7 µM; in the assay on ROPTL2, 3 µM. Besides, the EC50 with RTL1 was determined as 24 µM; with RTC it was 1.3 µM.
